According to EP2712863B1, “Novel inhibitors of bacterial biofilms and related methods” (Sequoia Sciences, Inc., priority 2012, dated 2014):
Values after ≈ are worked out from the molar mass of the structure shown.

What was measured:
P. aeruginosa = test: Biofilm growth assay (spreading biofilm on semi-solid agar); assay type: cell-based; conditions: Table 4, concentration that reduces the area of the spreading biofilm by >= 85%; for IC85: Pseudomonas aeruginosa, read-out: P. aeruginosa
E. coli = test: as above; assay type: cell-based; conditions: Table 4, concentration that reduces the area of the spreading biofilm by >= 85%; for IC85: Escherichia coli, read-out: E. coli
In short: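 Spreading (swarming) biofilm on semi-solid agar: E. coli on LB with 0.6% agar and 0.5% glucose; P. aeruginosa on M8 agar with 0.2% glucose, 100 µM CaCl2, 1 mM MgSO4, 0.5% Casamino acids. Compound in medium; 5 µL overnight culture spotted centrally, 37°C overnight. Value: concentration (µg/ml) giving ≥85% reduction in spread area versus negative control.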

Row | SMILES | IC85 (P. aeruginosa) [µg/mL] | IC85 (E. coli) [µg/mL] | P. aeruginosa (P. aeruginosa) [µg/mL] | E. coli (E. coli) [µg/mL]
1 | CC1(C)CC[C@]2(CN)CC[C@]3(C)C(=CCC4[C@@]5(C)Cc6c(n[nH]c6N)C(C)(C)C5CC[C@]43C)C2C1 (stereo partly drawn) [Compound 63, (4aS,6aS,6bR,13aR)-4a-(Aminomethyl)-2,2,6a,6b,9,9,13a-heptamethyl-2,3,4,4a,5,6,6a,6b,7,8,8a,9,11,13,13a,13b,14,15b-octadecahydro-1H-chryseno[1,2-f]indazol-12-amine] | 4 (≈ 8.35 µM) | 1 (≈ 2.09 µM) | – | –
2 | CC1(C)CC[C@]2(C(=O)NO)CC[C@]3(C)C(=CCC4[C@@]5(C)Cc6c(n[nH]c6N)C(C)(C)C5CC[C@]43C)C2C1 (stereo partly drawn) [Compound 65, (4aS,6aS,6bR,13aR)-12-Amino-N-hydroxy-2,2,6a,6b,9,9,13a-heptamethyl-2,3,4,4a,5,6,6a,6b,7,8,8a,9,11,13,13a,13b,14,15b-octadecahydro-1H-chryseno[1,2-f]indazole-4a-carboxamide] | 0.25 (≈ 0.491 µM) | 0.25 (≈ 0.491 µM) | – | –
3 | CC1(C)CC[C@]2(C(=O)Nc3cc(O)[nH]n3)CC[C@]3(C)C(=CCC4[C@@]5(C)Cc6c(n[nH]c6N)C(C)(C)C5CC[C@]43C)C2C1 (stereo partly drawn) [Compound 66, (4aS,6aS,6bR,13aR)-12-Amino-N-(5-hydroxy-1H-pyrazol-3-yl)-2,2,6a,6b,9,9,13a-heptamethyl-2,3,4,4a,5,6,6a,6b,7,8,8a,9,11,13,13a,13b, 14,15b-octadecahydro-1H-chryseno[1,2-f]indazole-4a-carboxamide] | 0.25 (≈ 0.435 µM) | 1 (≈ 1.74 µM) | – | –
4 | CC1(C)CC[C@]2(c3nnco3)CC[C@]3(C)C(=CCC4[C@@]5(C)Cc6c(n[nH]c6N)C(C)(C)C5CC[C@]43C)C2C1 (stereo partly drawn) [Compound 67, (4aS,6aS,6bR,13aR)-2,2,6a,6b,9,9,13a-Heptamethyl-4a-(1,3,4-oxadiazol-2-yl)-2,3,4,4a,5,6,6a,6b,7,8,8a,9,11,13,13a,13b,14,15b-octadecahydro-1H-chryseno[1,2-]indazol-12-amine] | – | – | 1 | 2
5 | CC1(C)CC[C@]2(C(=O)Nc3cc(N)n[nH]3)CC[C@]3(C)C(=CCC4[C@@]5(C)Cc6c(n[nH]c6N)C(C)(C)C5CC[C@]43C)C2C1 (stereo partly drawn) [Compound 69, (4aS,6aS,6bR,13aR)-12-amino-N-(3-amino-1H-pyrazol-5-yl)-2,2,6a,6b,9,9,13a-heptamethyl-2,3,4,4a,5,6,6a,6b,7,8,8a,9,11,13,13a,13b,14,15b-octadecahydro-1H-chryseno[1,2-f]indazole-4a-carboxamide] | 1 (≈ 1.74 µM) | 1 (≈ 1.74 µM) | – | –
6 | CC1(C)CC[C@]2(C(=O)Sc3nnc(N)[nH]3)CC[C@]3(C)C(=CCC4[C@@]5(C)Cc6c(n[nH]c6N)C(C)(C)C5CC[C@]43C)C2C1 (stereo partly drawn) [Compound 70, (4aS,6aS,6bR,13aR)-S-5-Amino-4H-1,2,4-triazol-3-yl 12-amino-2,2,6a,6b,9,9,13a-heptamethyl-2,3,4,4a,5,6,6a,6b,7,8,8a,9,11,13,13a,13b,14,15b-octadecahydro-1H-chryseno[1,2-f]indazole-4a-carbothioate] | 0.5 (≈ 0.845 µM) | 2 (≈ 3.38 µM) | – | –
7 | CC1(C)CC[C@]2(C(=O)Nc3nnc(N)s3)CC[C@]3(C)C(=CCC4[C@@]5(C)Cc6c(n[nH]c6N)C(C)(C)C5CC[C@]43C)C2C1 (stereo partly drawn) [Compound 71, (4aS,6aS,6bR,13aR)-12-Amino-N-(5-amino-1,3,4-thiadiazol-2-yl)-2,2,6a,6b,9,9,13a-heptamethyl-2,3,4,4a,5,6,6a,6b,7,8,8a,9,11,13,13a,13b,14,15b-octadecahydro-1H-chryseno[1,2-f]indazole-4a-carboxamide] | 0.5 (≈ 0.845 µM) | 2 (≈ 3.38 µM) | – | –
8 | Cn1nc([C@]23CCC(C)(C)C[C@H]2C2=CCC4[C@@]5(C)Cc6c(n[nH]c6N)C(C)(C)[C@@H]5CC[C@@]4(C)[C@]2(C)CC3)cc1N (stereo partly drawn) [Compound 72, (4aS,6aS,6bR,8aR,13aR,15bS)-4a-(5-Amino-1-methyl-1H-pyrazol-3-yl)-2,2,6a,6b,9,9,13a-heptamethyl-2,3,4,4a,5,6,6a,6b,7,8,8a,9,11,13,13a,13b,14,15b-octadecahydro-1H-chryseno[1,2-f]indazol-12-amine] | 1 (≈ 1.84 µM) | > 2 | – | –
9 | CC1(C)CC[C@]2(C(=O)n3ccnc3N)CC[C@]3(C)C(=CCC4[C@@]5(C)Cc6c(n[nH]c6N)C(C)(C)C5CC[C@]43C)C2C1 (stereo partly drawn) [Compound 73, (2-Amino-1H-imidazol-1-yl)((4aS,6aS,6bR,13aR)-12-amino-2,2,6a,6b,9,9,13a-heptamethyl-2,3,4,4a,5,6,6a,6b,7,8,8a,9,11,13,13a,13b,14,15b-octadecahydro-1H-chryseno[1,2-f]indazol-4a-yl)methanone] | 1 (≈ 1.79 µM) | 1 (≈ 1.79 µM) | – | –
10 | CC1(C)CC[C@]2(C(=O)Nc3nnc(S)s3)CC[C@]3(C)C(=CCC4[C@@]5(C)Cc6c(n[nH]c6N)C(C)(C)C5CC[C@]43C)C2C1 (stereo partly drawn) [Compound 74, (4aS,6aS,6bR,13aR)-12-Amino-N-(5-mercapto-1,3,4-thiadiazol-2-yl)-2,2,6a,6b,9,9,13a-heptamethyl-2,3,4,4a,5,6,6a,6b,7,8,8a,9,11,13,13a,13b,14,15b-octadecahydro-1H-chryseno[1,2-f]indazole-4a-carboxamide] | 1 (≈ 1.64 µM) | > 2 | – | –
11 | CC1(C)CC[C@]2(c3nnc(S)[nH]3)CC[C@]3(C)C(=CCC4[C@@]5(C)Cc6c(n[nH]c6N)C(C)(C)C5CC[C@]43C)C2C1 (stereo partly drawn) [Compound 75, 5-((4aS,6aS,6bR,13aR)-12-Amino-2,2,6a,6b,9,9,13a-heptamethyl-2,3,4,4a,5,6,6a,6b,7,8,8a,9,11,13,13a,13b,14,15b-octadecahydro-1H-chryseno[1,2-f]indazol-4a-yl)-4H-1,2,4-triazole-3-thiol] | 0.5 (≈ 0.911 µM) | 1 (≈ 1.82 µM) | – | –
12 | CC1(C)CC[C@]2(C(=O)n3cnc(S)n3)CC[C@]3(C)C(=CCC4[C@@]5(C)Cc6c(n[nH]c6N)C(C)(C)C5CC[C@]43C)C2C1 (stereo partly drawn) [Compound 76, ((4aS,6aS,6bR,13aR)-12-Amino-2,2,6a,6b,9,9,13a-heptamethyl-2,3,4,4a,5,6,6a,6b,7,8,8a,9,11,13,13a,13b,14,15b-octadecahydro-1H-chryseno[1,2-f]indazol-4a-yl)(3-mercapto-1H-1,2,4-triazol-1-yl)methanone] | 0.5 (≈ 0.867 µM) | 2 (≈ 3.47 µM) | – | –
13 | Cc1nnc(S)n1NC(=O)[C@]12CCC(C)(C)CC1C1=CCC3[C@@]4(C)Cc5c(n[nH]c5N)C(C)(C)C4CC[C@@]3(C)[C@]1(C)CC2 (stereo partly drawn) [Compound 77, (4aS,6aS,6bR,13aR)-12-Amino-N-(3-mercapto-5-methyl-4H-1,2,4-triazol-4-yl)-2,2,6a,6b,9,9,13a-heptamethyl-2,3,4,4a,5,6,6a,6b,7,8,8a,9,11,13,13a,13b,14,15b-octadecahydro-1H-chryseno[1,2-f]indazole-4a-carboxamide] | 1 (≈ 1.65 µM) | 2 (≈ 3.3 µM) | – | –
14 | CC1(C)CC[C@]2(c3nnc(O)s3)CC[C@]3(C)C(=CCC4[C@@]5(C)Cc6c(n[nH]c6N)C(C)(C)C5CC[C@]43C)C2C1 (stereo partly drawn) [Compound 78, 5-((4aS,6aS,6bR,13aR)-12-Amino-2,2,6a,6b,9,9,13a-heptamethyl-2,3,4,4a,5,6,6a,6b,7,8,8a,9,11,13,13a,13b,14,15b-octadecahydro-1H-chryseno[1,2-f]indazol-4a-yl)-1,3,4-thiadiazol-2-ol] | > 1 | 1 (≈ 1.82 µM) | – | –
15 | CC1(C)CC[C@]2(C(=O)Nc3cc(S)n[nH]3)CC[C@]3(C)C(=CCC4[C@@]5(C)Cc6c(n[nH]c6N)C(C)(C)C5CC[C@]43C)C2C1 (stereo partly drawn) [Compound 79, (4aS,6aS,6bR,13aR)-12-Amino-N-(3-mercapto-1H-pyrazol-5-yl)-2,2,6a,6b,9,9,13a-heptamethyl-2,3,4,4a,5,6,6a,6b,7,8,8a,9,11,13,13a,13b,14,15b-octadecahydro-1H-chryseno[1,2-f]indazole-4a-carboxamide] | 0.25 (≈ 0.423 µM) | 0.5 (≈ 0.846 µM) | – | –
16 | CC1(C)CC[C@]2(C(=O)Nc3nnc(S(N)(=O)=O)s3)CC[C@]3(C)C(=CCC4[C@@]5(C)Cc6c(n[nH]c6N)C(C)(C)C5CC[C@]43C)C2C1 (stereo partly shown) [Compound 80] | – | – | 1 | 1
17 | CC1(C)CC[C@]2(c3n[nH]c(O)c3CCO)CC[C@]3(C)C(=CCC4[C@@]5(C)Cc6c(n[nH]c6N)C(C)(C)C5CC[C@]43C)C2C1 (stereo partly drawn) [Compound 81, 3-((4aS,6aS,6bR,13aR)-12-Amino-2,2,6a,6b,9,9,13a-heptamethyl-2,3,4,4a,5,6,6a,6b,7,8,8a,9,11,13,13a,13b,14,15b-octadecahydro-1H-chryseno[1,2-f]indazol-4a-yl)-4-(2-hydroxyethyl)-1H-pyrazol-5-ol] | 0.5 (≈ 0.868 µM) | 1 (≈ 1.74 µM) | – | –
18 | Cc1c([C@]23CCC(C)(C)CC2C2=CCC4[C@@]5(C)Cc6c(n[nH]c6N)C(C)(C)C5CC[C@@]4(C)[C@]2(C)CC3)n[nH]c1O (stereo partly drawn) [Compound 82, 3-((4aS,6aS,6bR,13aR)-12-Amino-2,2,6a,6b,9,9,13a-heptamethyl-2,3,4,4a,5,6,6a,6b,7,8,8a,9,11,13,13a,13b,14,15b-octadecahydro-1H-chryseno[1,2-f]indazol-4a-yl)-4-methyl-1H-pyrazol-5-ol] | 0.5 (≈ 0.916 µM) | 1 (≈ 1.83 µM) | – | –
19 | CC1(C)CC[C@]2(c3n[nH]c(O)c3F)CC[C@]3(C)C(=CCC4[C@@]5(C)Cc6c(n[nH]c6N)C(C)(C)C5CC[C@]43C)C2C1 (stereo partly drawn) [Compound 83, 3-((4aS,6aS,6bR,13aR)-12-Amino-2,2,6a,6b,9,9,13a-heptamethyl-2,3,4,4a,5,6,6a,6b,7,8,8a,9,11,13,13a,13b,14,15b-octadecahydro-1H-chryseno[1,2-f]indazol-4a-yl)-4-fluoro-1H-pyrazol-5-ol] | 0.25 (≈ 0.455 µM) | 0.5 (≈ 0.909 µM) | – | –
20 | CC1(C)CC[C@]2(c3n[nH]c(O)c3CCN)CC[C@]3(C)C(=CCC4[C@@]5(C)Cc6c(n[nH]c6N)C(C)(C)C5CC[C@]43C)C2C1 (stereo partly drawn) [Compound 84, 3-((4aS,6aS,6bR,13aR)-12-Amino-2,2,6a,6b,9,9,13a-heptamethyl-2,3,4,4a,5,6,6a,6b,7,8,8a,9,11,13,13a,13b,14,15b-octadecahydro-1H-chryseno[1,2-f]indazol-4a-yl)-4-(2-aminoethyl)-1H-pyrazol-5-ol] | 0.125 (≈ 0.217 µM) | 0.5 (≈ 0.87 µM) | – | –
